Measurements: patent US9073858B2, “Methods of targeted drug development” (priority 2010, dated 2015)
pIC50: −log10 of the molar value. Like-named read-outs stand apart in the source and are kept apart here.

How the values were obtained:
[1] = tested on: MDBK line; assay: MTT Cell Proliferation Assay, MDBK line; assay type: cell-based, bovine
From the text: (§1) The following example describes the MTT Cell Proliferation Assay.
(§2) The MTT Cell Proliferation Assay is a colorimetric assay system that measures the reduction of the tetrazolium salt MTT (3-(4,5-dimethylthiazol-2-yl)-2,5-diphenyltetrazolium bromide) into insoluble formazan crystals, produced by the mitochondria of viable cells. […] The color can then be quantified by spectrophotometric means. Among the applications for the method are drug sensitivity, cytotoxicity, response to growth factors, and cell activation. The reduction of tetrazolium salts is now recognized as a safe, accurate alternative to radiometric testing.
(§3) Two replicates on each cell plate and 2 duplicate plates gave 4 individual replicates of each concentration, in each cell line. Concentrations were diluted in 100% DMSO from 25 mM stocks.
(§4) Twelve 96 well plates of each cell line were plated. Plating was done by dislodging cells as in passage protocol, counting on a hemocytometer, re-suspending in standard growth media, and plating using a multichannel pippetor.
(§5) 16 μl of 25 mM stock+34 μl DMSO=8 mM starting concentrations, and serial diluted as with test compounds in same plate. […] Two replicates of each concentrations was run on each cell plate. All compound addition and cell treatments were done using aseptic technique under a laminar flow aseptic hood.
(§6) Control: 0.5% DMSO in treatment media was used as the control.
(§7) MTT dye (Thiazolyl Blue Tetrazolium Bromide, Sigma cat # M5655) stock was prepared in bulk and stored at 4° C. for use: 5 mgs/ml sterile PDS, shielded from light. 4 ul of this stock per 100 uls treatment media per well was used.
(§8) Plates were incubated overnight prior to treatment, with treatment day=Day 0. Compound treatments were prepared prior to washing cells to minimize time cells were dry at room temperature after final aspiration. Compounds were diluted in 100% DMSO in 96 well polypropylene plates:40 μl 25 mM stock+10 μl DMSO=20 mM; 20 μl of 20 mM+30 μl DMSO=8 mM; 20 μl of 8 mM+30 μl DMSO=3.2 mM; 20 μl of 3.2 mM+30 μl DMSO=1.3 mM; 20 μl of 1.3 mM+30 μl DMSO=0.51 mM.
(§9) 5.0 μl/ml were added to treatment media, in sterile, 2.2 ml deep well plates=0.5% dmso final. Ten μl of each dmso concentration was added to 2.0 ml of treatment media and then mixed using a 1200 μl multichannel pipettor. Cell plates were treated from the deep well plates. Treatment media was standard growth media containing 0.5% FBS and standard additions. This reduced FBS concentration allowed for a slower growth rate in cells.
(§10) Media was aspirated from cell plates, and washed with 200 μl/well sterile PBS. Aspirated PBS wash, and cell plates were treated with 200 μl of compound/treatment media per well, and incubated at 37° C., 5% CO2 for 3 days.
(§11) Prior to harvesting, visual observations were made under an inverted microscope. Plates were harvested by: aspirating the growth media; adding back MTT dye/100 μl treatment media; and incubating plates at 37° C. for 1 hour. MTT dye was aspirated. 100 μl/well dmso was added, and then shaken on a Bellco plate shaker for 5 minutes, at 4.5 setting.
(§12) Plates were read in a Tecan Sunrize UV plate reader, at 560 nm. Settings: Read mode, Outside Normal 2 sec; Shake settle time 3 sec. Data is reported as % inhibition, calculated for individual plates using control values from that plate.

[2] = tested on: epithelial carcinoma A431 cell line; assay: MTT Cell Proliferation Assay, A431 cell line; assay type: cell-based; details: for MTT-72 h A431/MDBK (ratio) / MTT (10 Point follow-up) ratio: value in brackets; for MTT-72 h A431/MDBK (ratio): numerically MDBK value over A431 value; for MTT (10 Point follow-up) ratio: numerically MDBK over A431
From the text: as §1, §2, §3, §4, §5, §6, §7, §8, §9, §10, §11, §12

[3] = target: T1, EGFR (Homo sapiens, UniProt P00533); assay: EGFR in-cell Western (ICW) screening protocol; assay type: cell-based; design: unit not given here; details: for ICW Screen: initial screen
T1 construct: endogenous in cells; host or cells: A431 cells (ATCC CRL-1555)
Experimental: The following example describes general EGFR in-cell Western (ICW) screening protocol.
Two cell plates were prepared for each compound plate.
Serum Starvation: The cells were serum starved prior to compound addition. […] The cell plates were incubated at 37° C./5% CO2 for 2 hours.
Prepared compound plates were stored at RT prior to use and at 4° C. long term.
Compound Dilution Plate Preparation: 250 μl of DMEM supplemented with 1 mg/ml BSA (Sigma A3059-10G) was added to the appropriate wells of a 96 well plate to prepare the compound dilution plates. Using a multichannel pipettor, 1.25 μl of compound from the compound plate was transferred into the compound dilution plate.
Compound Addition: The starve media was removed from the cell plates by aspiration. Using a multichannel pipettor, the compound dilution plates were mixed by pipetting up and down three times. 50 μl of mixed, diluted compound was added to each of two rows/columns on each of two cell plates. The cell plates with compound were incubated at 37° C./5% CO2 for 4 hours.
50 μl of 20 or 0 ng/ml EGF was added to the appropriate wells without the removal of compound. The compound and EGF were mixed by pipetting up and down three times.
The plates were incubated at RT for 20 min without shaking. The Fixation Solution was removed by aspiration and the plates washed four times with 200 μl each of Triton Wash Solution (1×PBS, Sigma P3813-10PK, and 0.1% Triton X-100, T8787-50ML) for 5 min with gentle shaking.
The block was removed by aspiration and 50 μl of diluted primary Ab mix was added. The plates were incubated at 4° C. overnight with gentle shaking. The plates were washed five times with 200 μl of PBST (1×PBS, Sigma P3813-10PK, and 0.1% Tween-20, Sigma P9416-50ML) for 5 min each with shaking. 50 μl of diluted secondary Ab mix was added and the plates incubated at RT for 1 h with shaking. The plates were washed 5× with 200 μl of PBST for 5 min each with shaking. One final wash with 200 μl of PBS (Sigma P3813-10PK) for 5 min with shaking was performed prior to scanning.
In some screening assays, the dilution of the secondary Ab conjugates was 1/800 rather than 1/1200.
Plate Scanning: The plates were scanned on an Odyssey Infrared Imaging System from LI-COR Biosciences. The focus offset was set at 3.5 mm and the scanning intensity set at 3 for the 700 channel and 7 for the 800 channel.
Data Analysis: The % of Maximum and % Inhibition values were calculated as follows. 700 Channel=signal for total EGFR (used to control for variation in cell number). 800 Channel=signal for phosphorylated EGFR. 800−EGF=basal level EGFR phosporylation+non-specific signal (no compound). 800+EGF=800−EGF+EGF dependent EGFR receptor phosphorylation (no compound). 700/800com=700 or 800 channel signals with compound. % Maximum={[(800com/700com)−(800−EGF/700−EGF)]/[(800+EGF/700+EGF)−(800−EGF/700−EGF)]}×100%. % Inhibition=100%−(% Maximum).

[4] = Bos taurus, MDBK, 72 h, second value of A431/MDBK pair, read-out: MTT-72 h MDBK
[5] = Homo sapiens, A-431, 72 h, 72 h, first value of A431/MDBK pair, read-out: MTT-72 h A431
[6] = Bos taurus, MDBK, 10 point follow-up, second value of pair, read-out: MTT (10 Point follow-up) MDBK
[7] = Homo sapiens, A-431, 10 point follow-up, first value of pair, read-out: MTT (10 Point follow-up) A431

T1 sequence (P00533 25-1210): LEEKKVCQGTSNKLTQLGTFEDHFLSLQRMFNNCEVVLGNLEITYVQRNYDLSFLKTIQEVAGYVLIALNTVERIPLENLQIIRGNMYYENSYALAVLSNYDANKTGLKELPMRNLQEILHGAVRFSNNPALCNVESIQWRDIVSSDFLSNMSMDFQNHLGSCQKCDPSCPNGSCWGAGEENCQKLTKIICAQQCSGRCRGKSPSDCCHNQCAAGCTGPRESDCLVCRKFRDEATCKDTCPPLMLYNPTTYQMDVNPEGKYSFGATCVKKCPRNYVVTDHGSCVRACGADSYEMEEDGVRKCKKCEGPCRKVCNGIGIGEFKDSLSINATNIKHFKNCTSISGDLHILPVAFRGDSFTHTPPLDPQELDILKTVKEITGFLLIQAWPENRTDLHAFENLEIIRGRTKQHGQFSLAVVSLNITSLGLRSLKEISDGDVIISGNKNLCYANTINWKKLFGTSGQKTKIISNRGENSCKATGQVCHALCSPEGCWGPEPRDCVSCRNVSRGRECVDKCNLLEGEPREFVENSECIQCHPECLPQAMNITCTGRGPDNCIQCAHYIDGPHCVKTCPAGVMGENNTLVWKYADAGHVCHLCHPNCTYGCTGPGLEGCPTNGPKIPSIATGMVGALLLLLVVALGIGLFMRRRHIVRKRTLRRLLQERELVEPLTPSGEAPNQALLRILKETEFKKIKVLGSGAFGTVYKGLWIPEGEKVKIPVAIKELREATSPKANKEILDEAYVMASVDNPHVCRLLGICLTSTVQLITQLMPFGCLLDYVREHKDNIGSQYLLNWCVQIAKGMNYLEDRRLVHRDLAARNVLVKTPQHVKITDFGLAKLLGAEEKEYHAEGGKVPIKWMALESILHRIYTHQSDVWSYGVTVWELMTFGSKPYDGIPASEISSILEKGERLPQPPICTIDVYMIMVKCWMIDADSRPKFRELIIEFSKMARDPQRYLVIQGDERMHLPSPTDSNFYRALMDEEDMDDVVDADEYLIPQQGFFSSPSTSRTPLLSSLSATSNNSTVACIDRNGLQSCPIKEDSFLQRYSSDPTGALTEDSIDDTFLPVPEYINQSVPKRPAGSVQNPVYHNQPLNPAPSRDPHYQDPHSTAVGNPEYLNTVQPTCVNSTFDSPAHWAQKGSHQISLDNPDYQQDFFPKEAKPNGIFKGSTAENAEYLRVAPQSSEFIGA

SMILES | pIC50 ([2]; 72 h, first value of A431/MDBK pair, read-out: MTT-72 h A431) | ICW Screen [3] | ICW Re-Test [3] | pIC50 [2, 5] | pIC50 [2, 7] | pIC50 ([1]; 72 h, second value of A431/MDBK pair, read-out: MTT-72 h MDBK) | MTT-72 h A431/MDBK (ratio) ([2]; 72 h) | pIC50 [1, 4] | pIC50 [1, 6] | MTT (10 Point follow-up) ratio [2] | MTT-72 h % Max ([2]; 72 h, maximal effect printed after the ratio)
CCOc1ccc(NC(c2ccccn2)c2ccc3cccnc3c2O)cc1 (stereo not shown) [compound 1073] | 5.32 | 54.34 | 38.77 |  |  | 5.13 | 1.53 |  |  |  | 
CCOc1cc(C(Nc2ccccn2)c2ccc3cccnc3c2O)ccc1OC (stereo not shown) [compound 1968] |  | 46.48 | 20.95 | 5.15 |  |  | 0.86 | 5.21 |  |  | 
COc1ccc(C(Nc2cc(C)ccn2)c2ccc3cccnc3c2O)cc1OC (stereo not shown) [compound 1969] |  | 29.61 | 39.58 | 4.82 |  |  | 0.90 | 4.87 |  |  | 
Cc1ccc2ccc(C(Nc3ccccn3)c3cccc(O)c3)c(O)c2n1 (stereo not shown) [compound 1970] |  | 26.33 |  | 4.40 |  |  | 0.81 | 4.49 |  |  | 
COc1cc(C(Nc2cc(C)ccn2)c2ccc3cccnc3c2O)ccc1O (stereo not shown) [compound 1973] |  | 54.76 | 53.31 | 4.85 |  |  | 0.53 | 5.12 |  |  | 
CCOc1ccc(C(Nc2ccccn2)c2ccc3ccc(C)nc3c2O)cc1OC (stereo not shown) [compound 1976] |  | 26.91 |  | 4.58 |  |  | 0.50 | 4.89 |  |  | 
COc1ccc(C(Nc2cc(C)ccn2)c2ccc3cccnc3c2O)cc1O (stereo not shown) [compound 1978] |  | 63.53 | 41.95 | 5.14 |  |  | 1.47 | 4.97 |  |  | 
CCOc1cc(C(Nc2cc(C)ccn2)c2ccc3cccnc3c2O)ccc1OC (stereo not shown) [compound 1991] |  | 47.06 | 30.75 | 5.04 |  |  | 0.79 | 5.15 |  |  | 
Cc1ccc2ccc(C(Nc3ccccn3)c3ccc(O)cc3)c(O)c2n1 (stereo not shown) [compound 1997] |  | 29 |  | 4.33 |  |  | 0.52 | 4.61 |  |  | 
COc1ccc(C(Nc2ccccn2)c2ccc3ccc(C)nc3c2O)cc1OC (stereo not shown) [compound 10006] |  | 35.13 | 45.57 | 4.96 |  |  | 1.37 | 4.82 |  |  | 
Cc1cccc(NC(c2ccccc2F)c2ccc3cccnc3c2O)n1 (stereo not shown) [compound 10015] |  | 25.99 |  |  | 5.48 |  |  |  | 5.48 | 0.99 | 
Cc1ccnc(NC(c2ccc(O)cc2)c2ccc3ccc(C)nc3c2O)c1 (stereo not shown) [compound 10016] |  | 41.45 | 29.99 | 4.59 |  |  | 1.00 | 4.59 |  |  | 
Cc1ccnc(NC(c2cc(C)ccc2O)c2ccc3cccnc3c2O)c1 (stereo not shown) [compound 10029] |  | 40.02 | 35.03 | 5.19 |  |  | 0.84 | 5.27 |  |  | 
Cc1ccnc(NC(c2ccc3cccnc3c2O)c2sccc2C)c1 (stereo not shown) [compound 10963] |  | 100.4 | 99.05 |  |  |  | 1.98 |  |  |  | 40%

More lines, in order of rising pIC50 [2, 5], values ahead:

pIC50 ([2]; 72 h, first value of A431/MDBK pair, read-out: MTT-72 h A431) | ICW Screen [3] | ICW Re-Test [3] | pIC50 [2, 5] | pIC50 [2, 7] | SMILES | pIC50 ([1]; 72 h, second value of A431/MDBK pair, read-out: MTT-72 h MDBK) | MTT-72 h A431/MDBK (ratio) ([2]; 72 h) | pIC50 [1, 4] | pIC50 [1, 6] | MTT (10 Point follow-up) ratio [2] | MTT-72 h % Max ([2]; 72 h, maximal effect printed after the ratio)
 | 27.02 |  | 5.24 |  | COc1ccc(C(Nc2ccccn2)c2ccc3ccc(C)nc3c2O)cc1C (stereo not shown) [compound 1979] |  | 0.95 | 5.27 |  |  | 
 | 30.12 |  | 5.24 |  | CCCOc1ccc(C(Nc2ccccn2)c2ccc3cccnc3c2O)cc1 (stereo not shown) [compound 10028] |  | 0.95 | 5.27 |  |  | 
 | 33.75 |  | 5.27 | 5.35 | Cc1ccccc1C(Nc1ccccn1)c1ccc2cccnc2c1O (stereo not shown) [compound 10019] |  | 0.98 | 5.28 | 5.49 | 0.71 | 
 | 37.03 | 41.06 | 5.28 |  | Cc1cccc(NC(c2ccccc2C)c2ccc3ccc(C)nc3c2O)n1 (stereo not shown) [compound 10026] |  | 0.97 | 5.28 |  |  | 
 | 44.27 | 30.11 | 5.43 | 5.45 | CCOc1ccc(C(Nc2cc(C)ccn2)c2ccc3cccnc3c2O)cc1OC (stereo not shown) [compound 10017] |  | 0.94 | 5.45 | 5.53 | 0.85 | 
 | 61.2 | 62.77 | 5.45 | 5.45 | CCOc1ccc(C(Nc2ccccn2)c2ccc3cccnc3c2O)cc1O (stereo not shown) [compound 10013] |  | 1.80 | 5.19 | 5.20 | 1.79 | 
 | 43.76 | 33.76 | 5.46 | 5.46 | COc1ccc(C(Nc2cc(C)ccn2)c2ccc3cccnc3c2O)cc1C (stereo not shown) [compound 10005] |  | 1.07 | 5.43 | 5.38 | 1.20 | 
